Laboratory results taken from US20240024293A1, “NOMETHIAZOLES AS A TREATMENT FOR RETT SYNDROME” (REVIVO THERAPEUTICS, priority 2019, published 2024).
Structures can show the parent of a compound that is named as a salt.

Tests used:
[1] = tested on: Mecp2 female mice (HET); test: NeuroCube gait analysis in RETT mouse model; type: in vivo
Method: (§1) Experiments employed wild type (WT) mice and Mecp2 female mice (HET) that were provided by The Jackson Laboratory, Bar Harbor, ME.
(§2) Breeding of the experimental mice were done at The Jackson Laboratories and were shipped at approximately 5 weeks of age. Dosing experiments were conducted at approximately 6 weeks of age.
(§3) Treatment Groups (N=20) were as follow: • WT—Vehicle • HET—Vehicle • HET—RIV-0561 (1.35 mg/kg; ip QD)+0.675 mg/ml of RIV-0561 in drinking water • HET—RIV-0561 (13.5 mg/kg; ip QD)+0.675 mg/ml of RIV-0561 in drinking water
(§4) NeuroCube® and Startle experiments were conducted when mice were at 8 and 12 weeks of age. All tests were conducted within 2 hours post IP dosing.
NeuroCube® system is a proprietary gait analysis system. The platform employs computer vision to detect changes in gait geometry and gait dynamics in rodent models of neurological disorders, pain, and neuropathies. This platform is unique for gait testing for the following reasons: (1) it is completely automated and thus removes any bias or subjectivity; (2) the system captures both gait geometry and gait dynamics (stance, swing, propulsion, etc.); and (3) the sensitivity of the computer vision and bioinformatics allow the capture of symptoms of the disease model earlier and more accurately.
Mice are placed in the NeuroCube® for a 5-min test. The most dominant features that define the disease phenotype (symptom descriptors) are identified and ranked. Complex bioinformatics algorithms are employed to calculate the discrimination probability between WT and HET mice and can thus detect a test compound's ability to reverse the disease phenotype.

[2] = tested on: Mecp2 female mice (HET); test: Acoustic startle response in RETT mouse model; type: in vivo; details: HET mice at 8 weeks of age; all doses tested (1.35 or 13.5 mg/kg ip QD + 0.675 mg/ml in drinking water); FIG. 2
Method: as §1, §2, §3, §4
The acoustic startle measures an unconditioned reflex response to external auditory stimulation. Mice were placed in the startle enclosures and secured in the sound-attenuated startle chamber (Med Associates Inc., St Albans, VT) on top of a force transducer plate that measures the force of the movements made by the mouse for a 5 min habituation period of white noise (70 dB). Subsequent test sessions consisted of 10 blocks of eleven trials each. Within each block, stimuli of 70, 75, 80, 85, 90, 95, 100, 105, 110, 115, and 120 dB were presented in a random order with a variable inter-trial interval of mean 15 sec (10-20 sec). […] Responses were recorded for 150 ms from startle onset and were sampled every ms. […]

[3] = Gait features at 12 weeks, HET mice, dose not given

For `Cc1ncsc1CCO[N+](=O)[O-]` [RIV-5061, 2-(4-methylthiazol-5-yl)ethyl nitrate maleate], the “% Recovery, Body Motion” value [1, 3] was 19%, the “% Recovery, Gait Dynamic and Geometry” value [1, 3] was 53% and the “% Recovery, Overall Gait” value [1, 3] was 24%. For the same compound, the “% Recovery, Paw Features” value [1, 3] was 63%, the “% Recovery, Paw Positioning” value [1, 3] was 17% and the “% Recovery, Rhythmicity” value [1, 3] was 0%. The “Improvement of important gait features (up to)” value ([1]; RETT mice, after 12 weeks of treatment, particularly at the lower dose (1.35 mg/kg IP daily + 0.675 mg/ml in drinking water)) was > 60% and the Startle response [2] was “tendency to improve startle response”.
